Laboratory results as given in patent US20110053160A1, “HCV NS3/4A REPLICON SHUTTLE VECTORS” (priority 2009, published 2011).
Where two headings read alike, the source gives them in different places.

Key:
[1] = system: HCV GT-1b Con1 replicon pPI-luc/ET/SC in cured Huh7 cells; experiment: Transient replicon assay, IC50 determination (firefly luciferase reporter), parent replicon; assay type: cell-based; conditions: Hepatitis C virus, GT1B, Huh-7, luciferase read 72 hours after addition of inhibitor, read-out: IC50 VX-950
[2] = Transient replicon assay, IC50 determination (firefly luciferase reporter), shuttle vector replicons with patient-derived NS3/4A; assay type: cell-based, HCV; conditions: Hepatitis C virus, Huh-7, 72 h, luciferase read 72 hours after addition of inhibitor, read-out: IC50 VX-950
Experimental: DNA sequences encoding the NS3/4A protein were generated from plasma obtained from patients infected with HCV using reverse transcription of RNA followed by PCRamplification of the reverse-transcribed product. Reverse transcription of RNA was performed using Taqman Reverse Transcription Reagents (Applied Biosystems, Foster City, Calif., USA) using the primer, 5′-ACCAGGTCCTCSGTGGAGG-3′ (SEQ ID NO:9) and according to the manufacturers' protocol. The synthesized cDNA was then PCR-amplified with the GC RICH PCR system (Roche Applied Science) to ensure high fidelity and robust yields. Annealing temperatures in the range of 50-52° C. were used depending on patient sample and primer combinations. Two PCR reactions with two independent primer sets used for the first round PCR were as follows:
Five micrograms of DNA was linearized by Sca I restriction enzyme (Roche Applied Science). After overnight digestion at 37° C., the DNA was purified using Qiagen PCR purification kit. Eight microliters of linearized DNA was used for the in vitro transcription using T7 RiboMAX Express Large Scale RNA Production System kit following manufacturer's protocol (Promega, Madison, Wis., USA). After 2 hours of incubation at 37° C., DNase treatment was performed for 20 minutes at 37° C. to remove the DNA template. In vitro transcribed RNA was then purified using RNeasy mini kit following manufacturer's protocol (Qiagen).
Cured hepatoma cell line Huh7 was obtained from R. Bartenschlager. Cells were cultured at 37° C. in a humidified atmosphere with 5% CO2 in Dulbecco's Modified Eagle Medium (DMEM) supplemented with Glutamax and […] sodium pyruvate (Cat# 10569-010). The medium was further supplemented with 10% (v/v) FBS (Cat# 16000-036) and 1% (v/v) penicillin/streptomycin (Cat# 15140-122). All reagents were from Invitrogen.
Four million cured Huh7 cells were transfected with 10 μg of in vitro transcribed RNA using electroporation. Cells were then resuspended in 12 ml of DMEM containing 5% FBS and plated in 96-well plate at 28,800 cells/well (in 90 μl final volume) Inhibitors were added 24 hours post-transfection in 3 fold dilutions at a final DMSO concentration of 1% and firefly luciferase reporter signal was read 72 hours after addition of inhibitors using the Luciferase Assay system (Promega, cat #E1501). The IC50 values were assessed as the inhibitor concentration at which a 50% reduction in the level of firefly luciferase reporter was observed as compared to the level of firefly luciferase signal without the addition of compounds. […]

Molecule `CCC[C@H](NC(=O)[C@@H]1[C@H]2CCC[C@H]2CN1C(=O)[C@@H](NC(=O)[C@@H](NC(=O)c1cnccn1)C1CCCCC1)C(C)(C)C)C(=O)C(=O)NC1CC1` [VX-950] has an IC50 [1] of 0.253 µM, an IC50 ([2]; patient isolate 34) of 0.268 µM and an IC50 ([2]; patient isolate 98) of 0.205 µM. It also gave an IC50 ([2]; patient isolate 5903) of 0.097 µM, an IC50 ([2]; patient isolate 34026) of 0.048 µM and an IC50 ([2]; patient isolate 52620) of 0.092 µM. The IC50 ([2]; patient isolate 61793) was 0.381 µM, the IC50 ([2]; patient isolate 66200) was 0.332 µM and the IC50 ([2]; patient isolate 73837-2) was 0.228 µM. The IC50 ([2]; patient isolate 135635) was 0.394 µM, the IC50 ([2]; patient isolate 135640) was 0.385 µM and the IC50 ([2]; patient isolate 135641) was 0.175 µM. It also gave an IC50 ([2]; patient isolate 135649) of 0.108 µM and an IC50 ([2]; patient isolate RO256) of 0.093 µM.
